From patent EP0403591B1, “CRF ANALOGS” (THE SALK INSTITUTE FOR BIOLOGICAL STUDIES, priority 1988, dated 1994)
“Also recorded” adds a separate entry of the source. Non-standard residues stand in square brackets, D forms with d. Residues, ends and D or L forms follow the SMILES beside them. No end group written: not given here. *: point of attachment. Nle = CCCC[C@H](N)C(=O)O; Bz = O=C(c1ccccc1)*

Tests used:
[1] = Lowering of blood pressure (in vivo testing, general procedure of Example III); settings: testing by the general procedure of Example III
[2] = tested on: cultured rat pituitary cells; test: Secretion of ACTH and β-endorphin by cultured rat pituitary cells (procedure of Example III); format: cell-based; settings: for secretion of ACTH and β-END-LI: testing by the general procedure of Example III (in vitro and in vivo); for EC50: stimulation of secretion of ACTH and β-endorphin by cultured rat pituitary cells, read-out: Half-maximal responses (concentration)
Procedure: The synthetic peptide from Example I and synthetic oCRF are examined for their effects on the secretion of ACTH and β-endorphin in vitro and also in vivo.
The potency of synthetic oCRF to stimulate the secretion of ACTH and β-endorphin by cultured rat pituitary cells is measured using the procedure as generally set forth in Endocrinology, 91, 562 (1972). Half-maximal responses are observed at concentrations of the peptide very substantially less than the synthetic oCRF concentrations of about 250 picomolar which are needed to achieve this response. In vivo testing is carried out using the general procedure set forth in C. Rivier et al., Science, 218, 377 (1982), and biological potency is ascertained.

[3] = background statement; in mammals; cited from earlier work
[4] = tested on: ACTH and β-endorphin; settings: background statement; in vitro and in vivo; cited from earlier work
[5] = background statement; cited from earlier work
[6] = administered into the ventricles, rats; cited from earlier work

Row | Compound | lowering of blood pressure [1] | secretion of ACTH and β-END-LI [2] | other results
1 | CCCC[C@H](NC(=O)[C@H](Cc1c[nH]cn1)NC(=O)[C@H](CC(C)C)NC(=O)[C@H](CCCC)NC(=O)[C@H](CCC(=O)O)NC(=O)[C@H](CCCNC(=N)N)NC(=O)[C@H](CC(C)C)NC(=O)[C@H](CC(C)C)NC(=O)[C@H](Cc1c[nH]cn1)NC(=O)[C@H](Cc1ccccc1)NC(=O)[C@@H](NC(=O)[C@H](CC(C)C)NC(=O)[C@H](CC(=O)O)NC(=O)[C@H](CC(C)C)NC(=O)[C@H](CO)NC(=O)[C@@H](NC(=O)[C@@H]1CCCN1C(=O)[C@@H]1CCCN1)[C@@H](C)CC)[C@@H](C)O)C(=O)N[C@@H](C)C(=O)N[C@@H](CCCNC(=N)N)C(=O)N[C@@H](C)C(=O)N[C@@H](CCC(=O)O)C(=O)N[C@@H](CCC(N)=O)C(=O)N[C@@H](CCC(=O)O)C(=O)N[C@@H](C)C(=O)N[C@@H](CCC(=O)O)C(=O)N[C@@H](CCC(N)=O)C(=O)N[C@@H](C)C(=O)N[C@@H](CC(C)C)C(=O)N[C@@H](CC(C)C)C(=O)N[C@@H](CC(N)=O)C(=O)N[C@@H](CCCNC(=N)N)C(=O)N[C@@H](CC(N)=O)C(=O)N[C@@H](CC(C)C)C(=O)N[C@@H](CC(C)C)C(=O)N[C@@H](CCC(=O)O)C(=O)N[C@@H](CCC(=O)O)C(=O)N[C@@H](C)C(N)=O [XVII] (H-PPISLDLTFHLLRE[Nle]LH[Nle]ARAEQEAEQALLNRNLLEEA-NH2) | very significant lowering of blood pressure | stimulates the secretion of ACTH and β-END-LI | 
2 | CC[C@H](C)[C@H](NC(=O)[C@H](CC(=O)O)NC(=O)[C@H](CC(C)C)NC(=O)[C@H](CC(C)C)NC(=O)[C@H](CCCCN)NC(=O)[C@H](CCCNC(=N)N)NC(=O)[C@H](CC(N)=O)NC(=O)[C@H](CO)NC(=O)[C@H](Cc1c[nH]cn1)NC(=O)[C@H](C)NC(=O)[C@H](CCC(N)=O)NC(=O)[C@H](CCC(N)=O)NC(=O)[C@H](C)NC(=O)[C@H](CC(C)C)NC(=O)[C@H](CCC(N)=O)NC(=O)[C@H](CC(=O)O)NC(=O)[C@H](C)NC(=O)[C@H](CCCCN)NC(=O)[C@@H](NC(=O)[C@H](CCSC)NC(=O)[C@H](CCC(=O)O)NC(=O)[C@H](CC(C)C)NC(=O)[C@@H](NC(=O)[C@H](CCC(=O)O)NC(=O)[C@H](CCCNC(=N)N)NC(=O)[C@H](CC(C)C)NC(=O)[C@H](CC(C)C)NC(=O)[C@H](Cc1c[nH]cn1)NC(=O)[C@H](Cc1ccccc1)NC(=O)[C@@H](NC(=O)[C@H](CC(C)C)NC(=O)[C@H](CC(=O)O)NC(=O)[C@H](CC(C)C)NC(=O)[C@H](CO)NC(=O)[C@@H](NC(=O)[C@@H]1CCCN1C(=O)[C@@H]1CCCN1C(=O)[C@H](CCC(=O)O)NC(=O)[C@H](CCC(N)=O)NC(=O)[C@@H](N)CO)[C@@H](C)CC)[C@@H](C)O)C(C)C)[C@@H](C)O)C(=O)N[C@@H](C)C(N)=O [oCRF, ovine CRF] |  |  | lowering blood pressure [3]: biological activity in lowering blood pressure; also recorded: substantially lower blood pressure for an extended time period; secretion of ACTH and β-endorphin [4]: stimulating the secretion of ACTH and β-endorphin; also recorded: stimulate ACTH and β-endorphin activities in vitro and in vivo; EC50 [2]: ~0.25 nM; gastric acid production [5]: inhibits gastric acid production
3 | Ac-PPISLDLTFHLLREVLHMARAEQLAEQAHSNRNLMEEI-NH2 [VII, [Acetyl-Pro⁴, His²⁰, Glu^29,40, Asn³⁶]-rCRF(4-41)] | very significant lowering of blood pressure to a greater extent than rCRF | stimulates the secretion of ACTH and β-END-LI | 
4 | Bz-GEEPPISLDLT[Nle]HLLREVLHMARAEQLAQQAHSNRRLMEII-NH2 [VI, [Benzoyl-Gly¹, Nle¹², His²⁰, Arg³⁶]-rCRF] | very significant lowering of blood pressure | stimulates the secretion of ACTH and β-END-LI | 
5 | CRF: corticotropin releasing factor, species not specified (SEEPPISLDLTFHLLREVLEMARAEQLAQQAHSNRKLMEII; ends and bridges not checked; UniProt P06850 154-194, looked up) |  |  | activity and learning performance [6]: increases activity and improves learning performance
6 | Rat CRF (SEEPPISLDLTFHLLREVLEMARAEQLAQQAHSNRKLMEII; ends and bridges not checked; UniProt P01143 145-185, looked up) [rCRF, hentetracontapeptide; formula of human CRF is the same as that of rCRF] |  |  | lowering blood pressure [3]: substantially lower blood pressure for an extended time period; secretion of ACTH and β-endorphin [4]: stimulate ACTH and β-endorphin activities in vitro and in vivo
7 | SEEPPISLDLTFHLLREVLHMARAEGLAQQAHSNRKLMEII-NH2 [IV, [His²⁰, Gly²⁶)-rCRF] | very significant lowering of blood pressure | stimulates the secretion of ACTH and β-END-LI | 
8 | SEEPPISLDLTFHLLREVLHMARAEQLAQQAHSNRKLMEII-NH2 [Example I, [His²⁰]-rCRF] |  |  | EC50 [2]: < 0.25 nM
9 | SEEPPISLDLTFHLLREVLHRARAEQLAQQALINRKLMEII-NH2 [IX, [His²⁰, Arg²¹, Leu³², Ile³³]-rCRF] | very significant lowering of blood pressure to a greater extent than rCRF | stimulates the secretion of ACTH and β-END-LI | 
10 | SEEPPISLDLTFHLLREVLH[Nle]ARAEQLAQQALINRKLMEEI-NH2 [VIII, [His²⁰, Nle²¹, Leu³², Ile³³, Glu⁴⁰]-rCRF] | very significant lowering of blood pressure to a greater extent than rCRF | stimulates the secretion of ACTH and β-END-LI | 
11 | SEEPPISLELTFHLLREVLH[Nle]ARAEQLAEQAHINRKLMEII-NH2 [V, [Glu⁹, His²⁰, Nle²¹, Glu²⁹, Ile³³]-rCRF] | very significant lowering of blood pressure to a greater extent than rCRF | stimulates the secretion of ACTH and β-END-LI | 
12 | SQEPPISLDLTFHLLREMLHRAKAEQEAEQAAINRLLLEEA-NH2 [XIX] | very significant lowering of blood pressure | stimulates the secretion of ACTH and β-END-LI | 
13 | SQEPPISLDLTFHLLREVLHMTKADQLAQQAHSNRNLLDIA-NH2 [XIV, [His²⁰, Asn³⁶]-oCRF] | very significant lowering of blood pressure | stimulates the secretion of ACTH and β-END-LI | 
14 | SQEPPISLDLTFHLLREVLH[Nle]TKADQLAQQAHSNRKLLDIA-NH2 [XV, [His²⁰, Nle²¹]-oCRF] | very significant lowering of blood pressure | stimulates the secretion of ACTH and β-END-LI | 
15 | SQEPPISLDLTFHLLRE[Nle]LH[Nle]AKAEQEAEQAALNRLLLEEA-NH2 [XI] | very significant lowering of blood pressure | stimulates the secretion of ACTH and β-END-LI | 
16 | SQEPPISLDLTFHMLREMLHMAKMEQEAEQAALNRLLLEEA-NH2 [XVIII] | very significant lowering of blood pressure | stimulates the secretion of ACTH and β-END-LI | 
17 | SQEPPISLDLTFHMLREMLHRAKMEGEAEQALINRNLLEEA-NH2 [XIII] | very significant lowering of blood pressure | stimulates the secretion of ACTH and β-END-LI | 
18 | SQEPPISLELTFHLLRE[Nle]LHRAKAEQEAEQAALNRLLLEEA-NH2 [X] | very significant lowering of blood pressure | stimulates the secretion of ACTH and β-END-LI | 
19 | SQ[dY]PPISLDLTFHLLRE[Nle]LH[Nle]AKAGQEAEQAALNRLLLEEA-NH2 [XII] | very significant lowering of blood pressure | stimulates the secretion of ACTH and β-END-LI | 
20 | Sauvagine |  |  | lowering blood pressure [3]: biological activity in lowering blood pressure; secretion of ACTH and β-endorphin [4]: stimulating the secretion of ACTH and β-endorphin
21 | [D-Pro⁴, His²⁰]-oCRF(4-41) [XVI] | very significant lowering of blood pressure | stimulates the secretion of ACTH and β-END-LI | 
